≈ marks a conversion by molar mass, not a printed value. Where no end group is shown, it is not given here.
Tests used:
[1] = tested on: porcine trypsin and proteinase K; test: Proteases stability assay; format: in vitro ADME, porcine; Tritirachium album; settings: 1000 µg peptide with 50 µg protease (20:1 w/w), porcine trypsin or proteinase K, PBS pH 7.4, 37 °C, 3 h; read-out activity of supernatant on E. coli and S. aureus; triplicate
Protocol: The effect of two well-studied proteases, porcine trypsin and proteinase K from Tritirachium album, on the activity of peptides was investigated as per Carmona et al.. Briefly, 1000 µg of a peptide was incubated with 50 µg of a protease (20:1 w/w) at 37 °C for 3 h in phosphate buffered saline PBS (pH 7.4). The enzyme activity was then terminated by heating (70 °C, 5 min) and the samples centrifuged at 12,000× g. The activity of the supernatant on E. coli and S. aureus was tested as above, in triplicate.

C. albicans FRR 5580 = format: cell-based, Candida albicans; settings: PDB, overnight; mode of three independent experiments
Protocol: The assay was carried out as per Alfred et al.. Candida albicans (FRR 5580) was grown in potato dextrose broth (PDB; Difco-BD, Bergen County, NJ, USA) overnight at 30 °C with shaking (200 rpm) until exponential phase, then adjusted to 0.5 McFarland turbidity standard (approximately 1 × 10^6 cells/mL) and diluted 1:200 with PDB to 0.5 − 2 × 10^3 cells/mL. Peptides in 25 μL volumes were mixed with 75 μL of the yeast suspensions. The controls were included as above. The plates were incubated overnight and absorbance was recorded. All the tests were conducted in triplicate.

E. coli ATCC25922 = format: cell-based, Escherichia coli; settings: MHB; for MIC E. coli, No NaCl: 0 mM NaCl; for MIC E. coli, No NaCl / MIC E. coli, With 50mM NaCl / MIC E. coli, With 100mM NaCl / MIC E. coli, With 150mM NaCl: triplicate, mode; for MIC E. coli ATCC25922: 37 °C overnight, A595, mode of three independent experiments
Protocol: (§1) The activity of peptides was determined against the Gram-positive Staphylococcus aureus (ATCC 25923), and the Gram-negative Escherichia coli (ATCC 25922) and Pseudomonas aeruginosa (ATCC 9027) bacteria. Selected peptides were also tested against two clinical isolates of methicillin-resistant Staphylococcus aureus (MRSA), M173525 and M180920, kindly provided by Dr P. B. Ward (Microbiology Department, Austin and Repatriation Medical Centre, Heidelberg West, Victoria, Australia). The Minimum inhibitory concentration (MIC) of peptides was determined by the microtitre broth dilution method, as described in Phillips et al.. Briefly, bacteria were grown in Mueller-Hinton Broth (MHB) at 37 °C overnight with shaking (200 rpm). The cultures were adjusted to 0.5 McFarland turbidity standard (approximately 1 × 10^8 colony forming units (CFU)/mL), then diluted 1:100 in MHB (1 × 10^6 CFU/mL). A total of 75 μL of these suspensions were mixed with 25 μL of peptide solutions (final concentrations 250 to 0.5 μg/mL) and the microtitre plates incubated overnight at 37 °C. Positive growth controls (inoculum and MHB, with no peptide) and sterility controls (0.01% glacial acetic) were also included. Post-incubations, the absorbance of cultures at 595 nm was measured using a microplate reader (POLARstar Omega, Germany). […] To evaluate salt sensitivity of peptides up to physiological levels (150 mM NaCl), overnight cultures of S. aureus and E. coli adjusted to 0.5 McFarland turbidity standard were diluted 1:100 in MHB containing 0, 50, 100 or 150 mM NaCl, and the MICs of peptides determined as above. All tests were conducted in triplicate. The results are shown as the mode of values obtained.

HeLa cells = format: cell-based, human; settings: MTT, 24 h, peptide up to 250 µg/mL; concentration causing 50% cell growth inhibition; mean of triplicate assays
Protocol: (§2) Cytotoxicity to human cervical carcinoma HeLa cells and mouse fibroblastic NIH-3T3 cells was determined using the MTT assay as per Scudiero et al. with minor modifications. The cells were maintained in Dulbecco’s Modified Eagle Medium (DMEM) with 10% foetal bovine serum (FBS) and 1% penicillin G in a humidified incubator (Heraeus Hera Cell incubator) at 37 °C with 5% CO2. They were seeded in 96-well microtiter plates at 1 × 10^4 cells/well and allowed to adhere for 24 h in the incubator. The medium was removed, and adherent cells were washed with PBS. Fresh media containing serially diluted peptides in PBS (final concentrations 4 to 250 µg/mL) were added and the cells incubated for 24 h. Cells without peptides were used as negative controls. Following incubations, the medium was removed, and adherent cells were washed with PBS. 150 µL of MTT (diluted to 0.33 mg/mL in DMEM) and the plates incubated for 3 h. The precipitated formazan was dissolved in 100 µL of DMSO and its absorbance measured at 570 nm. Cell viability was determined as: (OD570 nm peptide treated cells/(OD570 nm untreated cells) × 100. Positive cytotoxicity was defined as peptide concentration that causes 50% growth inhibition in a cell line (IC50). All tests were carried out in triplicate.

S. aureus ATCC25923 = format: cell-based, Staphylococcus aureus; settings: MHB; for MIC S. aureus, No NaCl: 0 mM NaCl; for MIC S. aureus, No NaCl / MIC S. aureus, With 50mM NaCl / MIC S. aureus, With 100mM NaCl / MIC S. aureus, With 150mM NaCl: triplicate, mode; for MIC S. aureus ATCC25923: 37 °C overnight, A595, mode of three independent experiments
Protocol: as §1

P. aeruginosa ATCC9027 = format: cell-based, Pseudomonas aeruginosa; settings: MHB, 37 °C overnight, A595; mode of three independent experiments
Protocol: as §1

NIH-3T3 cells = test: Cytotoxicity, MTT assay; format: cell-based, mouse; settings: 24 h; for IC50 NIH-3T3: peptide up to 250 µg/mL, concentration causing 50% cell growth inhibition, mean of triplicate assays; for Cytotoxicity to NIH-3T3 mouse fibroblasts (in words): up to 250 µg/mL
Protocol: as §2

[2] = tested on: pBlueScript SK+ plasmid DNA; test: In vitro DNA-binding assay (gel retardation); settings: 100 ng pBlueScript SK+, peptide 8-500 µg/mL, 1 h room temperature, 1% agarose
Protocol: The ability of peptides to bind to purified DNA (indicative of in vivo DNA binding potential) was tested by the modified gel retardation assay developed by Alfred et al.. The DNA of pBlueScript SK+ (100 ng) was incubated with peptides (to final concentrations of 8, 16, 32, 64, 125, 250 or 500 µg/mL) in 15 µL volumes made with sterile MilliQ water, the held at room temperature for 1h. Loading dye was added to each sample and the samples electrophoresed on 1% agarose gels. The gels were then immersed in ethidium bromide ([…]) then visualized and imaged

E. coli and S. aureus = test: Salt tolerance (MICs under 0-150 mM NaCl, summary); format: cell-based, Escherichia coli; Staphylococcus aureus; set-up: key: Up to 50 mM: no effects on antibacterial activity up to 50 mM NaCl but increase in the MICs for E. coli and S. aureus at 100 mM NaCl; Intolerant: not resistant to salt effects even at 50 mM NaCl; Up to 150 mM: no effects on antibacterial activity up to 150 mM NaCl; settings: MICs for E. coli and S. aureus in MHB with 0, 50, 100 or 150 mM NaCl
Protocol: as §1

Compound	Protease Stability [1]	MIC C. albicans FRR 5580 (C. albicans FRR 5580)	MIC E. coli, No NaCl (E. coli ATCC25922)	MIC E. coli, With 50mM NaCl (E. coli ATCC25922)	MIC E. coli, With 100mM NaCl (E. coli ATCC25922)	MIC E. coli, With 150mM NaCl (E. coli ATCC25922)	IC50 HeLa (HeLa cells)	MIC S. aureus, No NaCl (S. aureus ATCC25923)	MIC S. aureus, With 50mM NaCl (S. aureus ATCC25923)	MIC S. aureus, With 100mM NaCl (S. aureus ATCC25923)	MIC S. aureus, With 150mM NaCl (S. aureus ATCC25923)	MIC P. aeruginosa ATCC9027 (P. aeruginosa ATCC9027)	IC50 NIH-3T3 (NIH-3T3 cells)	Cytotoxicity to NIH-3T3 mouse fibroblasts (in words) (NIH-3T3 cells)	Binding to DNA in vitro (concentration inhibiting plasmid migration) [2]	Salt Tolerance (E. coli and S. aureus)	MIC E. coli ATCC25922 (E. coli ATCC25922)	MIC S. aureus ATCC25923 (S. aureus ATCC25923)	Binding to DNA in vitro (concentration inhibiting plasmid migration) ([2]; listed as cyclized PuroA)
RRRRWRWWRWWRR-NH2 [Peptide R8]	Unstable	250 µg/mL	64 µg/mL	64 µg/mL	64 µg/mL	64 µg/mL	250 µg/mL	64 µg/mL	64 µg/mL	64 µg/mL	64 µg/mL	64 µg/mL	>250 µg/mL	no cytotoxicity	≥ 64 µg/mL	Up to 150 mM			
CC(C)[C@@H]1NC(=O)[C@@H]2CCCN2C(=O)[C@H](Cc2ccccc2)NC(=O)CNC(=O)[C@H](CCCCN)NC(=O)[C@H](Cc2c[nH]c3ccccc23)NC(=O)[C@H](Cc2c[nH]c3ccccc23)NC(=O)[C@H](CCCCN)NC(=O)[C@H](Cc2c[nH]c3ccccc23)NC(=O)[C@H](Cc2c[nH]c3ccccc23)NC(=O)[C@H](CCCNC(=N)N)NC(=O)[C@H](Cc2c[nH]c3ccccc23)NC(=O)[C@H]([C@@H](C)O)NC1=O [Cyclic PuroA]	Unstable	>250 µg/mL	250 µg/mL (≈ 135 µM)	> 250 µg/mL	> 250 µg/mL	> 250 µg/mL	>250 µg/mL	125 µg/mL (≈ 67.7 µM)	250 µg/mL (≈ 135 µM)	250 µg/mL (≈ 135 µM)	> 250 µg/mL	>250 µg/mL	>250 µg/mL	no cytotoxicity	≥ 64 µg/mL	Intolerant	250 µg/mL (≈ 135 µM)	125 µg/mL (≈ 67.7 µM)	64 µg/mL
WRWWKWWK-NH2 [Peptide W8]	Unstable	64 µg/mL	4 µg/mL	4 µg/mL	4 µg/mL	4 µg/mL	250 µg/mL	8 µg/mL	8 µg/mL	8 µg/mL	8 µg/mL	32 µg/mL	>250 µg/mL	no cytotoxicity	≥ 16 µg/mL	Up to 150 mM	4 µg/mL	8 µg/mL	
